Data published in PubChem BioAssay AID2060617 (Molecular Pharmacology Branch, DTP, NCI, 2025).

Test system: 485368-065-R4-J2-PDC spheroids with HUVEC/MSC, viability
Experiment: Anticancer human tumor 485368-065-R4-J2-PDC patient-derived pancreatic carcinoma cell line growth inhibition [CLK]
Conditions: for IC50: curve of first compound; for viability, T/C: stronger effect = lower value
How it was run: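 Multi-cell-type spheroids combined patient-derived tumor cells with HUVEC endothelial cells and human mesenchymal stem cells. Paired agents were dosed in half-log steps down from about clinical Cmax, or from 10 microM where Cmax was unknown.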
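Note: spheroids exposed to compounds for seven days.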
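Throughout, for viability, T/C: 100% = DMSO vehicle control wells.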

## NC(=O)C(=Cn1cnc(-c2cc(C(F)(F)F)cc(C(F)(F)F)c2)n1)c1cncnc1 + CN1CCN(c2cc(C(=O)Nc3cc4cc(-c5cnn(C)c5)ccc4cn3)ccn2)CC1
Second compound 0.0316 µM
  IC50: > 3000 nM
Second compound 0.1 µM
  IC50: 2910 nM
Second compound 0.316 µM
  IC50: 48.1 nM
Second compound 1 µM
  IC50: < 9.49 nM
Second compound 3.16 µM
  IC50: < 9.49 nM
Second compound 10 µM
  IC50: < 9.49 nM
Second compound 0.0316 µM, first compound 0.00949 µM
  viability, T/C: 100%
Second compound 0.0316 µM, first compound 0.03 µM
  viability, T/C: 127%
Second compound 0.0316 µM, first compound 0.0949 µM
  viability, T/C: 173%
Second compound 0.0316 µM, first compound 0.3 µM
  viability, T/C: 170%
Second compound 0.0316 µM, first compound 0.949 µM
  viability, T/C: 142%
Second compound 0.0316 µM, first compound 3 µM
  viability, T/C: 71.4%
Second compound 0.1 µM, first compound 0.00949 µM
  viability, T/C: 109%
Second compound 0.1 µM, first compound 0.03 µM
  viability, T/C: 125%
Second compound 0.1 µM, first compound 0.0949 µM
  viability, T/C: 155%
Second compound 0.1 µM, first compound 0.3 µM
  viability, T/C: 129%
Second compound 0.1 µM, first compound 0.949 µM
  viability, T/C: 79.5%
Second compound 0.1 µM, first compound 3 µM
  viability, T/C: 49.2%
Second compound 0.316 µM, first compound 0.00949 µM
  viability, T/C: 71.2%
Second compound 0.316 µM, first compound 0.03 µM
  viability, T/C: 65.3%
Second compound 0.316 µM, first compound 0.0949 µM
  viability, T/C: 28.8%
Second compound 0.316 µM, first compound 0.3 µM
  viability, T/C: 11.8%
Second compound 0.316 µM, first compound 0.949 µM
  viability, T/C: 4.77%
Second compound 0.316 µM, first compound 3 µM
  viability, T/C: 3.83%
Second compound 1 µM, first compound 0.00949 µM
  viability, T/C: 0.93%
Second compound 1 µM, first compound 0.03 µM
  viability, T/C: 1.37%
Second compound 1 µM, first compound 0.0949 µM
  viability, T/C: 3.35%
Second compound 1 µM, first compound 0.3 µM
  viability, T/C: 7.19%
Second compound 1 µM, first compound 0.949 µM
  viability, T/C: 6.52%
Second compound 1 µM, first compound 3 µM
  viability, T/C: 6.06%
Second compound 3.16 µM, first compound 0.00949 µM
  viability, T/C: 1.64%
Second compound 3.16 µM, first compound 0.03 µM
  viability, T/C: 3.12%
Second compound 3.16 µM, first compound 0.0949 µM
  viability, T/C: 5.78%
Second compound 3.16 µM, first compound 0.3 µM
  viability, T/C: 7.76%
Second compound 3.16 µM, first compound 0.949 µM
  viability, T/C: 10.5%
Second compound 3.16 µM, first compound 3 µM
  viability, T/C: 8.08%
Second compound 10 µM, first compound 0.00949 µM
  viability, T/C: 1.73%
Second compound 10 µM, first compound 0.03 µM
  viability, T/C: 4.63%
Second compound 10 µM, first compound 0.0949 µM
  viability, T/C: 4.7%
Second compound 10 µM, first compound 0.3 µM
  viability, T/C: 7.24%
Second compound 10 µM, first compound 0.949 µM
  viability, T/C: 9.55%
Second compound 10 µM, first compound 3 µM
  viability, T/C: 6.71%

## Nc1ccccc1NC(=O)c1ccc(CNC(=O)OCc2cccnc2)cc1 + CN1CCN(c2cc(C(=O)Nc3cc4cc(-c5cnn(C)c5)ccc4cn3)ccn2)CC1
Second compound 0.0316 µM
  IC50: 6960 nM
Second compound 0.1 µM
  IC50: 7560 nM
Second compound 0.316 µM
  IC50: 2520 nM
Second compound 1 µM
  IC50: < 31.6 nM
Second compound 3.16 µM
  IC50: < 31.6 nM
Second compound 10 µM
  IC50: < 31.6 nM
Second compound 0.0316 µM, first compound 0.0316 µM
  viability, T/C: 88.7%
Second compound 0.0316 µM, first compound 0.1 µM
  viability, T/C: 105%
Second compound 0.0316 µM, first compound 0.316 µM
  viability, T/C: 91%
Second compound 0.0316 µM, first compound 1 µM
  viability, T/C: 97.7%
Second compound 0.0316 µM, first compound 3.16 µM
  viability, T/C: 91.6%
Second compound 0.0316 µM, first compound 10 µM
  viability, T/C: 30.7%
Second compound 0.1 µM, first compound 0.0316 µM
  viability, T/C: 109%
Second compound 0.1 µM, first compound 0.1 µM
  viability, T/C: 118%
Second compound 0.1 µM, first compound 0.316 µM
  viability, T/C: 99.1%
Second compound 0.1 µM, first compound 1 µM
  viability, T/C: 102%
Second compound 0.1 µM, first compound 3.16 µM
  viability, T/C: 93.1%
Second compound 0.1 µM, first compound 10 µM
  viability, T/C: 36.2%
Second compound 0.316 µM, first compound 0.0316 µM
  viability, T/C: 81.1%
Second compound 0.316 µM, first compound 0.1 µM
  viability, T/C: 82.1%
Second compound 0.316 µM, first compound 0.316 µM
  viability, T/C: 66.8%
Second compound 0.316 µM, first compound 1 µM
  viability, T/C: 68.6%
Second compound 0.316 µM, first compound 3.16 µM
  viability, T/C: 45.5%
Second compound 0.316 µM, first compound 10 µM
  viability, T/C: 15.6%
Second compound 1 µM, first compound 0.0316 µM
  viability, T/C: 1.64%
Second compound 1 µM, first compound 0.1 µM
  viability, T/C: 1.49%
Second compound 1 µM, first compound 0.316 µM
  viability, T/C: 1.21%
Second compound 1 µM, first compound 1 µM
  viability, T/C: 0.42%
Second compound 1 µM, first compound 3.16 µM
  viability, T/C: 0.41%
Second compound 1 µM, first compound 10 µM
  viability, T/C: 1.05%
Second compound 3.16 µM, first compound 0.0316 µM
  viability, T/C: 1.12%
Second compound 3.16 µM, first compound 0.1 µM
  viability, T/C: 1.85%
Second compound 3.16 µM, first compound 0.316 µM
  viability, T/C: 3.03%
Second compound 3.16 µM, first compound 1 µM
  viability, T/C: 1.14%
Second compound 3.16 µM, first compound 3.16 µM
  viability, T/C: 1.31%
Second compound 3.16 µM, first compound 10 µM
  viability, T/C: 1.7%
Second compound 10 µM, first compound 0.0316 µM
  viability, T/C: 1.94%
Second compound 10 µM, first compound 0.1 µM
  viability, T/C: 2.06%
Second compound 10 µM, first compound 0.316 µM
  viability, T/C: 1.81%
Second compound 10 µM, first compound 1 µM
  viability, T/C: 2.05%
Second compound 10 µM, first compound 3.16 µM
  viability, T/C: 1.05%
Second compound 10 µM, first compound 10 µM
  viability, T/C: 1.74%
